These are literature values, as cited in US20030139466A1, “Methods for pretreating a subject with extracorporeal photopheresis” (priority 2001, published 2003).

The subject of data set [1] is monocytes. Conditions: plasma containing 8-methoxypsoralen and exposure to ultraviolet-A light (photopheresis).
Data set [2] deals with heart transplantation patients.

Molecules are shown by their SMILES.

Turning to `COc1c2occc2cc2ccc(=O)oc12` [8-methoxypsoralen, 9-methoxy-7H-furo[3,2-g][1]-benzopyran-7-one], the cytokine release result in data set [1] was “releases tumor necrosis factor-alpha, IL-1, IL-6, and possibly IL-8”.
For the compound `Cn1cnc([N+](=O)[O-])c1Sc1ncnc2nc[nH]c12` [azathioprine], the One-year actuarial survival in data set [2] was 60%. The “patients who experience no rejection” value in data set [2] (initial postoperative period) is listed as less than 10%.
